Patent US20250290928A1, “METHOD, KIT AND DEVICE FOR DETECTING EXTRACELLULAR VESICLES” (priority 2022, published 2025)
*: point of attachment. 5FAM = O=C1OC2(c3ccc(O)cc3Oc3cc(O)ccc32)c2ccc(C(=O)*)cc21

Legend:
Format in all cases: biochemical, Human
[1] = system: MMP in the MDA-MB-231-derived extracellular vesicles; experiment: Digital detection of MDA-MB-231-derived extracellular vesicles through MMP activity in wells (SB substrates); settings: for Expected value λ / Number of positives / Positive ratio: 6 h; for Extracellular vesicle concentration / Expected value λ (×1): Example 35, 6 h; for Extracellular vesicle concentration: at a concentration of x1, 50 fL; for Expected value λ (×1): from power approximation equation
Experimental: The concentration of the solution is 10 μg/mL. […] The solution was further diluted 2-fold to prepare a standard sample at a concentration of x1/4, further diluted 3-fold to prepare a standard sample at a concentration of x1/12, and further diluted 3-fold to prepare a standard sample at a concentration of x1/36. Thus, the standard samples with four concentrations were prepared.
In addition, 1 mM Alexa Fluor 647 was used as a standard fluorescent substance, and each of the MMP14 detection solutions contained the standard fluorescent substance at a final concentration of 2 μM.
(§1) 50 μL of each of the MMP detection solutions was added to 50 μL of each of the samples, a reaction was performed at 30° C., and MMP activity was evaluated.

[2] = system: MMP in the A549-derived extracellular vesicles; experiment: Evaluation of MMP activity of A549-derived extracellular vesicles with 96-well plate (SensoLyte 520 MMP Substrate Sampler Kit); settings: Example 34, EV 4 μg/mL, reporter 5 μM, buffer (4)
Experimental: The MMP14 activity was evaluated with a 96-well plate (manufactured by Thermo Fisher Scientific Inc., model number: 137101). A fluorescence intensity was measured with a fluorescence plate reader (Synergy MX, manufactured by BioTek Instruments, Inc.) at […] every 5 min for 1 hour. For measurement wavelengths, an excitation wavelength of 485±20 nm and a fluorescence wavelength of 528±20 nm were used.
(§2) 50 μL of the MMP detection solution was added to 50 μL of each of the samples, a reaction was performed at 30° C., and MMP activity was evaluated.

[3] = system: MMP in the MDA-MB-231-derived extracellular vesicles; experiment: Evaluation of MMP activity of MDA-MB-231-derived extracellular vesicles with 96-well plate (SensoLyte 520 MMP Substrate Sampler Kit); settings: for Fluorescence change after 1 hour of reaction at 30° C.: Example 34, EV 4 μg/mL, reporter 5 μM, buffer (4); for Fluorescence change after 2 hours of reaction at 30° C.: MP, EV 3.3 μg/mL
Experimental: as §2, §1

[4] = system: MMP in the A549-derived extracellular vesicles; experiment: Digital detection of A549-derived extracellular vesicles through MMP activity in wells (SB substrates); settings: for Extracellular vesicle concentration: at a concentration of x1, 50 fL; for Expected value λ / Number of positives / Positive ratio: Example 36, EV 5 μg/mL, reporter 5 μM, 30° C.
Experimental: The concentration of the solution is 10 μg/mL.
50 μL of each of the MMP detection solutions was added to 50 μL of the sample to provide a reaction solution for wells.

[5] = Example 35, 30° C., EV 0 (free of extracellular vesicles, pseudopositive)
[6] = Example 35, 30° C., EV 1/4 a.u.
[7] = Example 35, 30° C., EV 1/12 a.u.
[8] = Example 35, 30° C., EV 1/36 a.u.
[9] = Example 35, reporter 5 μM, 30° C., EV 1/2 a.u. (5 μg/mL in reaction solution)
[10] = 1.25 μM with 1.25 μM Custom #2T

| Substance | Expected value λ [1, 5] | Number of positives [1, 5] | Positive ratio [1, 5] | Expected value λ [1, 6] | Number of positives [1, 6] | Positive ratio [1, 6] | Expected value λ [1, 7] | Number of positives [1, 7] | Positive ratio [1, 7] | Expected value λ [1, 8] | Number of positives [1, 8] | Positive ratio [1, 8] | Extracellular vesicle concentration [1] | Expected value λ (×1) [1] | Expected value λ [1, 9] | Number of positives [1, 9] | Positive ratio [1, 9] | Fluorescence change after 1 hour of reaction at 30° C. [2] | Fluorescence change after 1 hour of reaction at 30° C. [3] | Fluorescence change after 2 hours of reaction at 30° C. [3, 10] | also measured |
| --- | --- | --- | --- | --- | --- | --- | --- | --- | --- | --- | --- | --- | --- | --- | --- | --- | --- | --- | --- | --- | --- |
| QXL520-Arg-Pro-Leu-Ala-Leu-Trp-Arg-Lys(5-FAM)-NH2 (QXL520-RPLALWRK(5FAM)-NH2) [SB9] | 3.56E−05 | 1 | 3.56E−05 | 0.2881 | 7,010 | 0.2503 | 0.01591 | 442 | 0.01579 | 0.01251 | 349 | 0.01243 | 4.7e+10 mL⁻¹ | 2.3593 | 0.9949 | 17,697 | 0.6302 | 1,775 ΔRFU | 62,330 ΔRFU | 39,228 ΔRFU | Fluorescence change after 2 hours of reaction at 30° C. ([3]; 5 μM with 5 μM Custom #2T): 40,247 ΔRFU; Expected value λ (×1) ([4]; Example 36, 4 hr): 0.1169; Extracellular vesicle concentration ([4]; Example 36, 4 hr): 2.338e+09 mL⁻¹; Expected value λ (×1) ([4]; Example 36, 24 hr): 0.01093; Extracellular vesicle concentration ([4]; Example 36, 24 hr): 2.185e+08 mL⁻¹; Expected value λ ([4]; 4 hr): 0.05844; Number of positives ([4]; 4 hr): 1,594; Positive ratio ([4]; 4 hr): 0.05677; Expected value λ ([4]; 24 hr): 0.00546; Number of positives ([4]; 24 hr): 153; Positive ratio ([4]; 24 hr): 0.00545 |
| QXL520-Pro-Leu-Ala-Leu-Trp-Ala-Arg-Lys(5-FAM)-NH2 (QXL520-PLALWARK(5FAM)-NH2) [SB2] | 3.56E−05 | 1 | 3.56E−05 | 0.3545 | 8,382 | 0.2985 | 0.1011 | 2,699 | 0.09612 | 0.02931 | 811 | 0.02888 | 5.3e+10 mL⁻¹ | 2.6406 | 1.326 | 20,623 | 0.7344 | 1,154 ΔRFU | 32,088 ΔRFU | 21,733 ΔRFU | Fluorescence change after 2 hours of reaction at 30° C. ([3]; 5 μM with 5 μM Custom #2T): 31,832 ΔRFU; Expected value λ (×1) ([4]; Example 36, 4 hr): 0.1343; Extracellular vesicle concentration ([4]; Example 36, 4 hr): 2.685e+09 mL⁻¹; Expected value λ (×1) ([4]; Example 36, 24 hr): 0.00799; Extracellular vesicle concentration ([4]; Example 36, 24 hr): 1.599e+08 mL⁻¹; Expected value λ ([4]; 4 hr): 0.06712; Number of positives ([4]; 4 hr): 1,823; Positive ratio ([4]; 4 hr): 0.06492; Expected value λ ([4]; 24 hr): 0.004; Number of positives ([4]; 24 hr): 112; Positive ratio ([4]; 24 hr): 0.00399 |
